Measurements taken from US11065266B2, “Method of treating melanoma using an inhibitor of an atypical protein kinase C” (UNIVERSITY OF SOUTH FLORIDA, priority 2016, dated 2021).

How the values were obtained:
MeWo cells [1] = assay: BME invasion assay (Calcein-AM fluorescence); assay type: cell-based, human; details: 2.5 μM, vs control
Method: (§1) This invasion assay was performed to investigate the effect of ACPD and DNDA on malignant melanoma cell invasion in vitro. Even though it is similar to the Boyden chamber assay, it avoids scraping off the Matrigel and staining to assess migrated number of cells through filter. […] Migrated cells were stained with a fluorescent marker, Calcein-AM. Live cells cleave the ester (AM) of the molecule in order to produce fluorescence. Thus, the amount of fluorescence accumulated in the bottom chamber is proportional to the number of invaded cells. The relative fluorescent units (excitation at 485 and emission at 528 nm) after 2 h exposure were reported for inhibitor treatments for both SK-MEL-2 and MeWo cell lines compared to controls (FIG. 8D).

SK-MEL-2 cells [2] = assay: BME invasion assay (Calcein-AM fluorescence); assay type: cell-based, human; details: 2.5 μM, vs control
Method: as §1

MeWo cells [3] = assay: Inhibitor dose response curves (cell counts after 3 days); assay type: cell-based, human
Method: (§2) Dose curves (inhibitor concentrations vs cell population after 3 days) for ICA-1, ACPD, DND and ζ-Stat were obtained for all 3 cell lines as follows. PCS-200-013, SK-MEL-2 and MeWo cells (4×10^4) were cultured in 25 cm^2 flasks and treated with either equal volume of sterile water (vehicle control). Cells were treated every 24 h during 3 day incubation period and cells were then lifted using Trypsin-EDTA solution (1.5 mL/flask) and neutralized with the equal volume of media. Subsequently, live cells were counted using the Scepter, an automated cell counter from Millipore (Billerica, Mass.). The cell growth inhibition for all inhibitors for the two malignant cell lines (SK-MEL-2 and MeWo) were quantified by counting the viable cells at 24 hour intervals. Cell counts obtained from Scepter was compared with the counts obtained from the Cellometer Vision from Nexcelom Bioscience (Lawrence, Mass.).
(§3) Dose curves for ACPD and DNDA were obtained to investigate the effect on cell proliferation of normal and malignant cell lines over a wide range of concentrations. […] ACPD decreased proliferation by 20% for 1.5 μM (p≤0.01), 48% for 2.5 μM (p≤0.01) and 51% for 3.5 μM (p≤0.001)(FIG. 5B). DNDA decreased by 17% for 500 nM (p≤0.01), 24% for 1.5 μM(p≤0.01), 52%) for 2.5 µM (p≤0.01) and 57 for 3.5 μM (p≤0.01)(FIG. 5C) in SK-MEL-2 cells. ACPD decreased proliferation by 28% for 500 nM (p≤0.01), 41% for 1.5 μM (p≤0.01), 54% for 2.5 µM (p≤0. 01) and 58% for 3.5 μM (p≤0.01) (FIG. 5D). DNDA decreased proliferation by 37% for 500 nM (p≤0.01), 41% for 1.5 μM (p≤0.01), 46% for 2.5 μM (p≤0.01) and 48% for 3.5 μM (p≤0.01) (FIG. 5E) in the MeWo cells.

[4] = tested on: PCS-200-013 normal melanocyte; assay: as above; assay type: cell-based, human; details: for effect on cell proliferation of normal melanocytes: dose curve
Method: as §2, §3

SK-MEL-2 cells [5] = assay: as above; assay type: cell-based, human
Method: as §2, §3

PCS-200-013 normal cells = assay: WST-1 assay for cell viability and cytotoxicity; assay type: cell-based, human; details: treated at IC50, 3 days
Method: (§4) Approximately 4×10^3 cells (PCS-200-013, SK-MEL-2 and MeWo) were cultured in a 96 well plate. […] This IC50 was obtained based on the cell viability counts in the previous experiments. Additional doses of sterile water or inhibitor were supplied every 24 h during 3 day incubation period. At the end of 3 day treatment, media were removed and fresh media (100 μL) were added with 4-[3-(4-iodophenyl)-2-(4-nitropheny))-2H-5-tetrazolio]-1,3-benzene disulfonate (WST-1) reagent (10 μL) to each well. The absorbance was measured at 450 nm for every 0.5 hour up to 3 hours using the Synergy HT microplate reader from Biotek (Winooski, Vt.).
(§5) WST-1 assay was performed to determine the in-vitro cytotoxicity of ACPD and DNDA on normal and malignant cell lines. Measured absorbance at 450 nm is directly proportional to the number of cells present. Cells produce a water soluble formazan with WST-1 as a result of their mitochondrial dehydrogenase activity. WST-1 assay is preferred over 3-(4,S-Dimethyl-2-thiazolyl)-2, 5-diphenyl-2Htetrazolium bromide (MTT) test since MTT needs to add acidic isopropanol to dissolve formazan which gives an additional toxicity to cells.

SK-MEL-2 cells [6] = assay: WST-1 assay for cell viability and cytotoxicity; assay type: cell-based, human; details: treated at IC50, 3 days
Method: as §4, §5

[7] = tested on: malignant melanoma cells (SK-MEL-2 and MeWo); assay: Viable cell counts, malignant cell lines taken together; assay type: cell-based; details: Homo sapiens; for IC50: from dose curves of cell proliferation, read-out: half maximal inhibitory concentration (IC50)
Method: as §2, §3
To test the effects of ζ-Stat on malignant cells approximately 4×10^4 of cells were cultured in 25 cm2 flasks and treated with either equal volume of sterile water (control) or ζ-Stat (0.1-10 μM). Additional doses of sterile water or inhibitor were supplied every 24 h during 3 day incubation period. Subsequently, cells were lifted and counted. Cells were quantified by counting the viable cells at 24 hour intervals. […] N=3 experiments were performed for each cell line and mean±SD are plotted.

Row | IC50 [7] [µM] | SMILES | reduction of invasion (MeWo cells [1]) [%] | reduction of invasion (SK-MEL-2 cells [2]) [%] | decrease of proliferation (MeWo cells [3]; 500 nM) [%] | decrease of proliferation (MeWo cells [3]; 1.5 μM) [%] | decrease of proliferation (MeWo cells [3]; 2.5 μM) [%] | decrease of proliferation (MeWo cells [3]; 3.5 μM) [%] | inhibition of cell proliferation of normal melanocytes ([4]; 3.5 μM) [%] | effect on cell proliferation of normal melanocytes [4] | decrease of proliferation (SK-MEL-2 cells [5]; 500 nM) [%] | decrease of proliferation (SK-MEL-2 cells [5]; 1.5 μM) [%] | decrease of proliferation (SK-MEL-2 cells [5]; 2.5 μM) [%] | decrease of proliferation (SK-MEL-2 cells [5]; 3.5 μM) [%] | WST-1 absorbance at 450 nm, effect on normal cells (PCS-200-013 normal cells) | WST-1 absorbance at 450 nm, effect (SK-MEL-2 cells [6]) | cytotoxicity at 2.5 µM ([7]; 2.5 μM, read-out: inhibition of cell viability according to cell counts) [%] | cytotoxicity at 5 µM ([7]; 5 μM, read-out: inhibition of cell viability according to cell counts) [%] | cytotoxicity at 10 µM ([7]; 10 μM, read-out: inhibition of cell viability according to cell counts) [%]
1 | ~2.5 | Nc1c(S(=O)(=O)O)cc2cc(S(=O)(=O)O)ccc2c1N [DNDA, 3,4-diamino-2,7-naphthalenedisulfonic acid] | 32 | 32 | 37 | 41 | 46 | 48 | 13.5 | did not show a significant effect | 17 | 24 | 52 | 57 | did not show a significant effect | significant decrease in absorption | – | – | –
2 | ~2.5 | CC(=O)C1=C(O)CCC1=O [ACPD, 2-acetyl-1,3-cyclopentanedione] | 21 | 24 | 28 | 41 | 54 | 58 | – | did not show a significant effect | – | 20 | 48 | 51 | did not show a significant effect | did not show a significant effect | – | – | –
3 | – | O=S(=O)(O)c1cc(O)c2c(S(=O)(=O)O)cc(S(=O)(=O)O)cc2c1 [ζ-Stat, 8-hydroxy-1,3,6-naphthalenetrisulfonic acid] | – | – | – | – | – | – | – | – | – | – | – | – | – | – | 20 to 25 | ~50 | ~50
